According to PMC6409085, “Three odorant-binding proteins are involved in the behavioral response of Sogatella furcifera to rice plant volatiles” (PeerJ, 2019):
Values joined by “and” are separate entries in the source; they are usually repeats but may differ in a detail not shown here. Equal values may be shown once.

Assays:
SfurOBP1 = SfurOBP1 (Sogatella furcifera, UniProt V5T8N5); test: biochemical; type: binding; conditions: for Fluorescence competitive binding assay, fluorescence intensity: OBP1, three replicate columns
Chain of SfurOBP1 (V5T8N5 entry or part of it): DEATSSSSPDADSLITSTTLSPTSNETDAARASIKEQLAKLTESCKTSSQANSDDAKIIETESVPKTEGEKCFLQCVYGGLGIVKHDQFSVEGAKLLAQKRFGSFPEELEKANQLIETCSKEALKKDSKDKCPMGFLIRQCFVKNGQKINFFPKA
Method in brief: (§1)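 Fluorescence competitive binding used 2.0 µM SfurOBP and 2.0 µM 1-NPN reporter in 50 mM Tris-HCl, pH 7.4, with odorants at 2-20 µM. Fluorescence was read 2 min after adding the odorant (excitation 337 nm, emission 390-490 nm), in triplicate. Ki was calculated from IC50 as IC50/(1 + [1-NPN]/K1-NPN).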

SfurOBP11 = SfurOBP11 (Sogatella furcifera, UniProt V5T6E3); test: biochemical; type: binding
Chain of SfurOBP11 (V5T6E3 entry or part of it): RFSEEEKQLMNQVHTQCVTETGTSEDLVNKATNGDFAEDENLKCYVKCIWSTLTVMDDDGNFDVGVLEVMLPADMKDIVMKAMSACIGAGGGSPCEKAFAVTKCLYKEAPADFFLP
Method in brief: as §1

SfurOBP2 = SfurOBP2 (Sogatella furcifera, UniProt V5T759); test: biochemical; type: binding
Chain of SfurOBP2 (V5T759 entry or part of it): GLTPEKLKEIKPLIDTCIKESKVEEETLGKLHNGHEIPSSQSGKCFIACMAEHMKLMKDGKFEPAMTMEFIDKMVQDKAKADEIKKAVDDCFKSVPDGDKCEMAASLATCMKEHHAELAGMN
Method in brief: as §1

SfurOBP3 = SfurOBP3 (Sogatella furcifera, UniProt V5T818); test: biochemical; type: binding; conditions: for Fluorescence competitive binding assay, fluorescence intensity: OBP3, three replicate columns
Chain of SfurOBP3 (V5T818 entry or part of it): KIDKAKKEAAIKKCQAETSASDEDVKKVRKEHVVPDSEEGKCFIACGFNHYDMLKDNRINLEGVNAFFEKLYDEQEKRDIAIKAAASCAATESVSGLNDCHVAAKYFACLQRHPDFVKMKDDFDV
Method in brief: as §1

S. furcifera adults = test: Y-tube olfactometer behavioral trials; type: in vivo, Sogatella furcifera; conditions: odorant 50 µL/L vs hexane
Method in brief: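 Single S. furcifera adults (2 days post-emergence, starved 0.5 h) chose between odorant (100 µL of 50 µL/L on filter paper) and hexane control in a glass Y-tube, charcoal-filtered humidified air 300 mL/min per arm, 25 ± 1 °C, 50% RH. Choice scored if insect passed half an arm and stayed >1 min within 10 min; 45 insects per compound, chi-squared test.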

Fluorescence competitive binding assay, fluorescence intensity (SfurOBP1; ligand concentration 2 (μM)): 8889 and 7931 and 9847 | Fluorescence competitive binding assay, fluorescence intensity (SfurOBP1; ligand concentration 4 (μM)): 9154 and 8432 and 9875 | Fluorescence competitive binding assay, fluorescence intensity (SfurOBP1; ligand concentration 6 (μM)): 7581 and 8720 and 8173 | Fluorescence competitive binding assay, fluorescence intensity (SfurOBP1; ligand concentration 8 (μM)): 8276 and 7641 and 8381 | Fluorescence competitive binding assay, fluorescence intensity (SfurOBP1; ligand concentration 10 (μM)): 7644 and 8267 and 8233 | Fluorescence competitive binding assay, fluorescence intensity (SfurOBP1; ligand concentration 12 (μM)): 8969 and 10263 and 9250 | Fluorescence competitive binding assay, fluorescence intensity (SfurOBP1; ligand concentration 14 (μM)): 8392 and 9042 and 10874 | Fluorescence competitive binding assay, fluorescence intensity (SfurOBP1; ligand concentration 16 (μM)): 8482 and 9466 and 8778 | Fluorescence competitive binding assay, fluorescence intensity (SfurOBP1; ligand concentration 18 (μM)): 11781 and 12671 and 12573 | Fluorescence competitive binding assay, fluorescence intensity (SfurOBP1; ligand concentration 20 (μM)): 13259 and 11367 and 9255 | IC50 (SfurOBP1; SfurOBP1, protein and 1-NPN both 2.0 µM, competitor 2-20 µM, read-out: IC50): > 20 µM | IC50 (SfurOBP11; SfurOBP11, protein and 1-NPN both 2.0 µM, competitor 2-20 µM, read-out: IC50): > 20 µM | Fluorescence intensity, fluorescence competitive binding assay, OBP11 (SfurOBP11; ligand concentration 2, replicate 1): 27436 | Fluorescence intensity, fluorescence competitive binding assay, OBP11 (SfurOBP11; ligand concentration 2, replicate 2): 25403 | Fluorescence intensity, fluorescence competitive binding assay, OBP11 (SfurOBP11; ligand concentration 2, replicate 3): 32188 | Fluorescence intensity, fluorescence competitive binding assay, OBP11 (SfurOBP11; ligand concentration 4, replicate 1): 29413 | Fluorescence intensity, fluorescence competitive binding assay, OBP11 (SfurOBP11; ligand concentration 4, replicate 2): 28026 | Fluorescence intensity, fluorescence competitive binding assay, OBP11 (SfurOBP11; ligand concentration 4, replicate 3): 33638 | Fluorescence intensity, fluorescence competitive binding assay, OBP11 (SfurOBP11; ligand concentration 6, replicate 1): 33021 | Fluorescence intensity, fluorescence competitive binding assay, OBP11 (SfurOBP11; ligand concentration 6, replicate 2): 33682 | Fluorescence intensity, fluorescence competitive binding assay, OBP11 (SfurOBP11; ligand concentration 6, replicate 3): 34343 | Fluorescence intensity, fluorescence competitive binding assay, OBP11 (SfurOBP11; ligand concentration 8, replicate 1): 31948 | Fluorescence intensity, fluorescence competitive binding assay, OBP11 (SfurOBP11; ligand concentration 8, replicate 2): 30771 | Fluorescence intensity, fluorescence competitive binding assay, OBP11 (SfurOBP11; ligand concentration 8, replicate 3): 33124 | Fluorescence intensity, fluorescence competitive binding assay, OBP11 (SfurOBP11; ligand concentration 10, replicate 1): 30756 | Fluorescence intensity, fluorescence competitive binding assay, OBP11 (SfurOBP11; ligand concentration 10, replicate 2): 30287 | Fluorescence intensity, fluorescence competitive binding assay, OBP11 (SfurOBP11; ligand concentration 10, replicate 3): 30522 | Fluorescence intensity, fluorescence competitive binding assay, OBP11 (SfurOBP11; ligand concentration 12, replicate 1): 29262 | Fluorescence intensity, fluorescence competitive binding assay, OBP11 (SfurOBP11; ligand concentration 12, replicate 2): 31182 | Fluorescence intensity, fluorescence competitive binding assay, OBP11 (SfurOBP11; ligand concentration 12, replicate 3): 32197 | Fluorescence intensity, fluorescence competitive binding assay, OBP11 (SfurOBP11; ligand concentration 14, replicate 1): 28697 | Fluorescence intensity, fluorescence competitive binding assay, OBP11 (SfurOBP11; ligand concentration 14, replicate 2): 28336 | Fluorescence intensity, fluorescence competitive binding assay, OBP11 (SfurOBP11; ligand concentration 14, replicate 3): 31391 | Fluorescence intensity, fluorescence competitive binding assay, OBP11 (SfurOBP11; ligand concentration 16, replicate 1): 26235 | Fluorescence intensity, fluorescence competitive binding assay, OBP11 (SfurOBP11; ligand concentration 16, replicate 2): 27774 | Fluorescence intensity, fluorescence competitive binding assay, OBP11 (SfurOBP11; ligand concentration 16, replicate 3): 27525 | Fluorescence intensity, fluorescence competitive binding assay, OBP11 (SfurOBP11; ligand concentration 18, replicate 1): 34849 | Fluorescence intensity, fluorescence competitive binding assay, OBP11 (SfurOBP11; ligand concentration 18, replicate 2): 34941 | Fluorescence intensity, fluorescence competitive binding assay, OBP11 (SfurOBP11; ligand concentration 18, replicate 3): 33114 | Fluorescence intensity, fluorescence competitive binding assay, OBP11 (SfurOBP11; ligand concentration 20, replicate 1): 29304 | Fluorescence intensity, fluorescence competitive binding assay, OBP11 (SfurOBP11; ligand concentration 20, replicate 2): 30167 | Fluorescence intensity, fluorescence competitive binding assay, OBP11 (SfurOBP11; ligand concentration 20, replicate 3): 28561 | IC50 (SfurOBP2; SfurOBP2, protein and 1-NPN both 2.0 µM, competitor 2-20 µM, read-out: IC50): > 20 µM | Fluorescence competitive binding assay, OBP2 (raw fluorescence reading) (SfurOBP2; ligand concentration 2 (unit not given), replicate column 1 of 3): 13775 | Fluorescence competitive binding assay, OBP2 (raw fluorescence reading) (SfurOBP2; ligand concentration 2 (unit not given), replicate column 2 of 3): 13769 | Fluorescence competitive binding assay, OBP2 (raw fluorescence reading) (SfurOBP2; ligand concentration 2 (unit not given), replicate column 3 of 3): 13734 | Fluorescence competitive binding assay, OBP2 (raw fluorescence reading) (SfurOBP2; ligand concentration 4 (unit not given), replicate column 1 of 3): 13631 | Fluorescence competitive binding assay, OBP2 (raw fluorescence reading) (SfurOBP2; ligand concentration 4 (unit not given), replicate column 2 of 3): 13783 | Fluorescence competitive binding assay, OBP2 (raw fluorescence reading) (SfurOBP2; ligand concentration 4 (unit not given), replicate column 3 of 3): 13500 | Fluorescence competitive binding assay, OBP2 (raw fluorescence reading) (SfurOBP2; ligand concentration 6 (unit not given), replicate column 1 of 3): 14480 | Fluorescence competitive binding assay, OBP2 (raw fluorescence reading) (SfurOBP2; ligand concentration 6 (unit not given), replicate column 2 of 3): 14028 | Fluorescence competitive binding assay, OBP2 (raw fluorescence reading) (SfurOBP2; ligand concentration 6 (unit not given), replicate column 3 of 3): 13866 | Fluorescence competitive binding assay, OBP2 (raw fluorescence reading) (SfurOBP2; ligand concentration 8 (unit not given), replicate column 1 of 3): 14049 | Fluorescence competitive binding assay, OBP2 (raw fluorescence reading) (SfurOBP2; ligand concentration 8 (unit not given), replicate column 2 of 3): 14101 | Fluorescence competitive binding assay, OBP2 (raw fluorescence reading) (SfurOBP2; ligand concentration 8 (unit not given), replicate column 3 of 3): 13901 | Fluorescence competitive binding assay, OBP2 (raw fluorescence reading) (SfurOBP2; ligand concentration 10 (unit not given), replicate column 1 of 3): 14583 | Fluorescence competitive binding assay, OBP2 (raw fluorescence reading) (SfurOBP2; ligand concentration 10 (unit not given), replicate column 2 of 3): 14099 | Fluorescence competitive binding assay, OBP2 (raw fluorescence reading) (SfurOBP2; ligand concentration 10 (unit not given), replicate column 3 of 3): 14077 | Fluorescence competitive binding assay, OBP2 (raw fluorescence reading) (SfurOBP2; ligand concentration 12 (unit not given), replicate column 1 of 3): 12819 | Fluorescence competitive binding assay, OBP2 (raw fluorescence reading) (SfurOBP2; ligand concentration 12 (unit not given), replicate column 2 of 3): 13447 | Fluorescence competitive binding assay, OBP2 (raw fluorescence reading) (SfurOBP2; ligand concentration 12 (unit not given), replicate column 3 of 3): 13211 | Fluorescence competitive binding assay, OBP2 (raw fluorescence reading) (SfurOBP2; ligand concentration 14 (unit not given), replicate column 1 of 3): 12583 | Fluorescence competitive binding assay, OBP2 (raw fluorescence reading) (SfurOBP2; ligand concentration 14 (unit not given), replicate column 2 of 3): 13279 | Fluorescence competitive binding assay, OBP2 (raw fluorescence reading) (SfurOBP2; ligand concentration 14 (unit not given), replicate column 3 of 3): 13266 | Fluorescence competitive binding assay, OBP2 (raw fluorescence reading) (SfurOBP2; ligand concentration 16 (unit not given), replicate column 1 of 3): 12291 | Fluorescence competitive binding assay, OBP2 (raw fluorescence reading) (SfurOBP2; ligand concentration 16 (unit not given), replicate column 2 of 3): 12273 | Fluorescence competitive binding assay, OBP2 (raw fluorescence reading) (SfurOBP2; ligand concentration 16 (unit not given), replicate column 3 of 3): 12414 | Fluorescence competitive binding assay, OBP2 (raw fluorescence reading) (SfurOBP2; ligand concentration 18 (unit not given), replicate column 1 of 3): 15293 | Fluorescence competitive binding assay, OBP2 (raw fluorescence reading) (SfurOBP2; ligand concentration 18 (unit not given), replicate column 2 of 3): 14599 | Fluorescence competitive binding assay, OBP2 (raw fluorescence reading) (SfurOBP2; ligand concentration 18 (unit not given), replicate column 3 of 3): 14178 | Fluorescence competitive binding assay, OBP2 (raw fluorescence reading) (SfurOBP2; ligand concentration 20 (unit not given), replicate column 1 of 3): 14271 | Fluorescence competitive binding assay, OBP2 (raw fluorescence reading) (SfurOBP2; ligand concentration 20 (unit not given), replicate column 2 of 3): 14231 | Fluorescence competitive binding assay, OBP2 (raw fluorescence reading) (SfurOBP2; ligand concentration 20 (unit not given), replicate column 3 of 3): 15281 | Fluorescence competitive binding assay, fluorescence intensity (SfurOBP3; ligand concentration 2): 74152 and 72365 and 72059 | Fluorescence competitive binding assay, fluorescence intensity (SfurOBP3; ligand concentration 4): 77402 and 81799 and 77600 | Fluorescence competitive binding assay, fluorescence intensity (SfurOBP3; ligand concentration 6): 79862 and 82180 and 72867 | Fluorescence competitive binding assay, fluorescence intensity (SfurOBP3; ligand concentration 8): 73959 and 76680 and 68556 | Fluorescence competitive binding assay, fluorescence intensity (SfurOBP3; ligand concentration 10): 74938 and 80983 and 75877 | Fluorescence competitive binding assay, fluorescence intensity (SfurOBP3; ligand concentration 12): 71318 and 75448 and 71285 | Fluorescence competitive binding assay, fluorescence intensity (SfurOBP3; ligand concentration 14): 70629 and 72724 and 74851 | Fluorescence competitive binding assay, fluorescence intensity (SfurOBP3; ligand concentration 16): 63137 and 66714 and 63682 | Fluorescence competitive binding assay, fluorescence intensity (SfurOBP3; ligand concentration 18): 73714 and 82385 and 76604 | Fluorescence competitive binding assay, fluorescence intensity (SfurOBP3; ligand concentration 20): 75970 and 66519 and 62854 | IC50 (SfurOBP3; SfurOBP3, protein and 1-NPN both 2.0 µM, competitor 2-20 µM, read-out: IC50): > 20 µM
Compound: CCCCCCCCCCC [n-hendecane]
behavioral response of S. furcifera (in words) (S. furcifera adults): strongly attracted | number of insects choosing hexane arm (S. furcifera adults; adults): 8 | number of insects choosing volatilies arm (S. furcifera adults; adults): 18 | number of insects failed (no choice) (S. furcifera adults; adults): 14
